Test results as given in patent publication US12447141B2, “Liquid tasimelteon formulations and methods of use thereof” (Vanda Pharmaceuticals Inc., priority 2019, dated 2025).
≈ marks a conversion by molar mass, not a printed value.

Legend:
[1] = Solubility and pH of saturated solution; format: physicochemical; settings: water
[2] = Chemical / storage stability of tasimelteon and its suspensions; format: physicochemical; settings: formation of three degradation products
Protocol: Ascorbic acid preferentially undergoes oxidation, thereby preventing oxidation of tasimelteon, but also imparts a yellow color to the suspension on storage, especially when stored at 40° C./75% RH for >3 months, which is the accelerated storage condition for products stored at room temperature (6 months of satisfactory stability is necessary at 40° C./75% RH in order to justify long-term storage at room temperature/25° C./60% RH). Because of the color change from white/off-white to yellow after 3 months storage at 40° C./75% RH, it is necessary to store the suspension at 5° C., for which the accelerated storage condition is 25° C./60% RH and up to 6 months of satisfactory stability data at this storage condition are available (i.e., color change is from white/off-white to slightly yellow).
Short-term stability studies can be undertaken under storage conditions at (1) 5±3° C., (2) 25±2° C. (at 60±5% relative humidity), and 40±2° C. (at 75±5% relative humidity) for one to three months. Under such conditions, total impurities as determined by HPLC for pharmaceutically acceptable compositions are, for example, not more than 2.0 percent by weight or not more than 0.5 percent by weight with respect to known impurities, and not more than 0.2 percent by weight with respect to unspecified impurities.

[3] = test system: Smith-Magenis Syndrome (SMS); test: Study of efficacy of tasimelteon in disorders including SMS, once daily before bedtime; format: in vivo, pediatric patients
Protocol: (§1) One common symptom of SMS is a chronically disrupted sleep pattern, which is found at all ages. In a study to determine the efficacy of tasimelteon in the treatment of disorders, including SMS, oral (20 mg capsule or 4 mg/mL suspension) and intravenous (0.4 mg/mL) formulations were administered once per day before bedtime to pediatric patients 3-17 years old.
Treatment efficacy was assessed by improvements in nighttime sleep (i.e., reduced nighttime activity interrupting the sleep period, improved sleep efficiency, reduced variability in sleep onset, reduced variability in morning awakenings, and/or improved sleep quality), reduced daytime sleepiness, reduced behavioral problems (i.e., reduced aggressive behavior, reduced temper tantrums, reduced hyperactivity, and/or reduced attention deficits).

[4] = Apparent clearance in the pediatric study; format: in vivo, pediatric patients; settings: children with body mass greater than 28 kg
Protocol: as §1

[5] = known in the art, cited from earlier work

Row | solubility [1] [mg/mL] | oxidative degradation [2] | apparent clearance [4] | SMILES | consistently effective dose ([3]; patients with body mass greater than 28 kg) [mg] | consistently effective dose ([3]; patients with body mass of 28 kg or less) [mg/kg] | solubility in organic solvents ([5]; 95% ethanol, methanol, acetonitrile, ethyl acetate, isopropanol, polyethylene glycols (PEG-300 and PEG-400)) | effect of pH on aqueous solubility [5] | native pH of a saturated solution in water ([5]; saturated solution in water) | solubility in water ([5]; water)
1 | ~200 (≈ 1100 mM) |  |  | OC[C@@H](O)[C@@H](O)[C@H](O)[C@H](O)CO [mannitol] |  |  |  |  |  | 
2 | ~1 (≈ 4.08 mM) | susceptible to oxidative degradation | constant and similar to that of adults | CCC(=O)NC[C@@H]1C[C@H]1c1cccc2c1CCO2 [tasimelteon, trans-N-[[2-(2,3-dihydrobenzofuran-4-yl)cycloprop-1-yl]methyl]propanamide] | 20 | 0.7 | highly soluble | substantially unaffected by pH | 8.5 | poorly soluble
